Laboratory results reported in ChEMBL document CHEMBL5036330, “Discovery of 8,9-seco-ent-Kaurane Diterpenoids as Potential Leads for the Treatment of Triple-Negative Breast Cancer” (J Med Chem, 2021).
Activity calls are given as the source filed them. The calls are words filed in the database; no cut-off is given here.

Legend:
[1] = biological target: RAC-alpha serine/threonine-protein kinase (Homo sapiens) (UniProt P31749); experiment: Binding affinity to Akt1 in human MDA-MB-468 cells assessed as shifted melting curve at 2 uM by CETSA assay; type: cell-based
Sequence of RAC-alpha serine/threonine-protein kinase (Homo sapiens) (P31749 whole entry): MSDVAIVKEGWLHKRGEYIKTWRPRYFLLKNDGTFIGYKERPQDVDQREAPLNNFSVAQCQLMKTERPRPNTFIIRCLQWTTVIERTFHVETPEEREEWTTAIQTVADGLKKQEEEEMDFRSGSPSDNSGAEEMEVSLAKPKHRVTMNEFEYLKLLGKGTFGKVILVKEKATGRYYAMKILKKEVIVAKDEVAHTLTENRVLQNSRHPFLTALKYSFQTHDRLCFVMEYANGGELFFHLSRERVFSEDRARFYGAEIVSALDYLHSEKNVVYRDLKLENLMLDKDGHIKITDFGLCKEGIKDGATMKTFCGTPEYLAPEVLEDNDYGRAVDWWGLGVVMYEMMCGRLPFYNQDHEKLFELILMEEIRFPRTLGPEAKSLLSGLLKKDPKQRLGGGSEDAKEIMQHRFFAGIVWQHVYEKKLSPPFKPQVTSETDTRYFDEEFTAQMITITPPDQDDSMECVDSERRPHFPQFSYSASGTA

MDA-MB-231 [2] = experiment: Induction of autophagy in human MDA-MB-231 cells assessed as increase in ATG5 expression at 1 to 5 uM incubated for 24 hrs by Western blot analysis; type: functional, cell-based; conditions: dose 1-5 µM
[3] = Selectivity index, ratio of IC50 for human LO2 cells to IC50 for human MBA-MB-231 cells; type: functional
MDA-MB-468 [4] = experiment: Induction of cell cycle arrest in human MDA-MB-468 cells assessed as accumulation of cells at G2 phase at 5 uM measured after 24 hrs by flow cytometry (reference value: 26.5%); type: functional
MDA-MB-231 [5] = experiment: Cytotoxicity against Akt1-silenced human MBA-MB-231 cells assessed as cell viability measured after 24 hrs; type: functional, cell-based
MDA-MB-231 [6] = experiment: Induction of cell cycle arrest in human MDA-MB-231 cells assessed as accumulation of cells at G2 phase at 1 uM measured after 24 hrs by flow cytometry (reference value: 20.2%); type: functional
MDA-MB-231 [7] = experiment: Induction of mitochondrial depolarization in human MDA-MB-231 cells assessed as monomers at 5 uM in dark by JC10 staining based fluorescence microscopy (reference value: 5.6%); type: functional
MDA-MB-468 [8] = experiment: Induction of mitochondrial depolarization in human MDA-MB-468 cells assessed as monomers at 1 uM in dark by JC10 staining based fluorescence microscopy (reference value: 8.4%); type: functional
MDA-MB-468 [9] = experiment: Induction of mitochondrial depolarization in human MDA-MB-468 cells assessed as monomers at 5 uM in dark by JC10 staining based fluorescence microscopy (reference value: 8.4%); type: functional
MDA-MB-231 [10] = experiment: Antiinvasive activity against in human MDA-MB-231 cells measured at 0.2 uM upto 72 hrs by transwell invasion assay relative to control; type: functional; conditions: MDA-MB-231, 72 h, time hrs <=72
MDA-MB-231 [11] = experiment: Antitumor activity against human MDA-MB-231 cells xenografted in NOD/SCID mouse assessed as decrease in CD31 expression in tumor tissue at 5 to 10 mg/kg, ip treated for 33 days by immunohistochemical analysis; type: functional, organism-based; conditions: dose 5-10 mg/kg, time 33.0 day
MDA-MB-468 [12] = experiment: Anticancer activity in human MDA-MB-468 cells xenografted mouse model assessed as tumor growth inhibition at 10 mg/kg, ip treated for 33 days relative to control; type: functional, organism-based; conditions: time 33.0 day
MDA-MB-468 [13] = experiment: Induction of mitochondrial depolarization in human MDA-MB-468 cells assessed as aggregates at 1 uM in dark by JC10 staining based fluorescence microscopy (reference value: 91.6%); type: functional
MDA-MB-231 [14] = experiment: Induction of apoptosis in human MDA-MB-231 cells assessed as late apoptotic cells at 2 uM measured after 24 hrs by Annexin V/Propidium iodide stain based Flow cytometry (reference value: 2.78%); type: functional
MDA-MB-468 [15] = experiment: Induction of mitochondrial depolarization in human MDA-MB-468 cells assessed as monomers at 2 uM in dark by JC10 staining based fluorescence microscopy (reference value: 8.4%); type: functional
[16] = Selectivity index, ratio of IC50 for HEK293 cells to IC50 for human MBA-MB-231 cells; type: toxicity; conditions: HEK293 cells versus MBA-MB-231 cells, read-out: Selectivity Index
MDA-MB-231 [17] = experiment: Antitumor activity against human MDA-MB-231 cells xenografted in NOD/SCID mouse assessed as decrease in Ki67 expression in tumor tissue at 5 to 10 mg/kg, ip treated for 33 days by immunohistochemical analysis; type: functional, organism-based; conditions: dose 5-10 mg/kg, time 33.0 day
[18] = biological target: Serine/threonine-protein kinase mTOR (Homo sapiens) (UniProt P42345); experiment: Inhibition of mTOR phosphorylation in human MDA-MB-231 cells measured after 24 hrs by Western blot analysis; type: cell-based; conditions: dose 1-5 µM
MDA-MB-231 [19] = experiment: Effect on mTOR expression in human MDA-MB-231 cells measured at 1 to 5 uM after 24 hrs by Western blot analysis; type: functional, cell-based; conditions: dose 1-5 µM
MDA-MB-231 [20] = experiment: Antiinvasive activity against human MDA-MB-231 cells measured upto 72 hrs by transwell invasion assay relative to control; type: functional, cell-based; conditions: dose 0.1-0.2 µM, time hrs <=72
MDA-MB-468 [21] = experiment: Induction of cell cycle arrest in human MDA-MB-468 cells assessed as accumulation of cells at G1 phase at 5 uM measured after 24 hrs by flow cytometry (reference value: 26.6%); type: functional
MDA-MB-231 [22] = experiment: Induction of cell cycle arrest in human MDA-MB-231 cells assessed as accumulation of cells at G2 phase at 5 uM measured after 24 hrs by flow cytometry (reference value: 20.2%); type: functional
MDA-MB-231 [23] = experiment: Induction of apoptosis in human MDA-MB-231 cells assessed as increase in cleaved caspase 3 at 1 to 5 uM measured after 24 hrs by Western blot analysis; type: functional, cell-based; conditions: dose 1-5 µM
MDA-MB-468 [24] = experiment: Anticancer activity in human MDA-MB-468 cells xenografted mouse model assessed as tumor growth inhibition at 5 mg/kg, ip treated for 33 days relative to control; type: functional, organism-based; conditions: time 33.0 day
MDA-MB-231 [25] = experiment: Inhibition of PI3K phosphorylation in human MDA-MB-231 cells measured at 1 to 5 uM after 24 hrs by Western blot analysis; type: cell-based; conditions: dose 1-5 µM
[26] = Toxicity in NOD/SCID mouse assessed as cytotoxicity in heart at 10 mg/kg, ip treated for 33 days by H&E staining analysis; type: organism-based; conditions: in vivo, 792 h, time 33 day
MCF7 = experiment: Cytotoxicity against human MCF7 cells assessed as reduction in cell viability incubated for 96 hrs by MTT method; type: functional, cell-based; conditions: MCF7, 96 h
MDA-MB-468 [27] = experiment: Induction of apoptosis in human MDA-MB-468 cells assessed as increase in cleaved PARP at 1 to 5 uM measured after 24 hrs by Western blot analysis; type: functional, cell-based; conditions: dose 1-5 µM
MDA-MB-231 [28] = experiment: Induction of autophagy in human MDA-MB-231 cells assessed as increase in ATG7 expression at 1 to 5 uM incubated for 24 hrs by Western blot analysis; type: functional, cell-based; conditions: dose 1-5 µM
MDA-MB-231 [29] = experiment: Induction of cell cycle arrest in human MDA-MB-231 cells assessed as accumulation of cells at G1 phase at 1 uM measured after 24 hrs by flow cytometry (reference value: 47.7%); type: functional
MDA-MB-468 [30] = experiment: Induction of apoptosis in human MDA-MB-468 cells assessed as late apoptotic cells at 2 uM measured after 24 hrs by Annexin V/Propidium iodide stain based Flow cytometry (reference value: 3.98%); type: functional
MDA-MB-468 [31] = experiment: Effect on PI3K expression in human MDA-MB-468 cells measured at 1 to 5 uM after 24 hrs by Western blot analysis; type: functional, cell-based; conditions: dose 1-5 µM
MDA-MB-231 [32] = experiment: Antitumor activity against human MDA-MB-231 cells xenografted in NOD/SCID mouse assessed as increase in TUNEL expression in tumor tissue at 5 to 10 mg/kg, ip treated for 33 days by immunohistochemical analysis; type: functional, organism-based; conditions: dose 5-10 mg/kg, time 33.0 day
MDA-MB-468 [33] = experiment: Induction of apoptosis in human MDA-MB-468 cells assessed as early apoptotic cells at 2 uM measured after 24 hrs by Annexin V/Propidium iodide stain based Flow cytometry (reference value: 7.98%); type: functional
MDA-MB-468 [34] = experiment: Induction of cell cycle arrest in human MDA-MB-468 cells assessed as accumulation of cells at S phase at 5 uM measured after 24 hrs by flow cytometry (reference value: 46.9%); type: functional

- Activity [1]: Active
- inhibition [18]: Active
Compound: C=C1C(=O)C2=C[C@H]1CCC(=O)[C@]1(C)[C@H](O)CCC(C)(C)[C@H]1C[C@H]2O
- Activity (MDA-MB-231 [2]): Active
- Selectivity Index [3]: >66.7
- Activity (MDA-MB-468 [4]): 59.6%
- Activity (MDA-MB-231 [5]): inactive
- Activity (MDA-MB-231 [6]): 29.2%
- Activity (MDA-MB-231 [7]): 76.2%
- Activity (MDA-MB-468 [8]): 38.4%
- Activity (MDA-MB-468 [9]): 86.6%
- inhibition at 0.2 µM (MDA-MB-231 [10]): 80%
- Activity (MDA-MB-231 [11]): Active
- Activity (MDA-MB-468 [12]): Active
- Activity (MDA-MB-468 [13]): 61.6%
- Activity (MDA-MB-231 [14]): 13.6%
- Activity (MDA-MB-468 [15]): 78.5%
- selectivity ratio [16]: 26.2
- Activity (MDA-MB-231 [17]): Active
- Activity (MDA-MB-231 [19]): inactive
- Activity (MDA-MB-231 [20]): Dose-Dependent Effect
- Activity (MDA-MB-468 [21]): 16.1%
- Activity (MDA-MB-231 [22]): 37.4%
- Activity (MDA-MB-231 [23]): Active
- Activity (MDA-MB-468 [24]): Active
- inhibition (MDA-MB-231 [25]): inactive
- Activity [26]: Non-Toxic
- IC50 (MCF7): 113 nM
- Activity (MDA-MB-468 [27]): Active
- Activity (MDA-MB-231 [28]): Active
- Activity (MDA-MB-231 [29]): 33.7%
- Activity (MDA-MB-468 [30]): 12.5%
- Activity (MDA-MB-468 [31]): inactive
- Activity (MDA-MB-231 [32]): Active
- Activity (MDA-MB-468 [33]): 35.5%
- Activity (MDA-MB-468 [34]): 24.3%
